Laboratory results from patent US10059701B2 (Merck Patent GmbH, priority 2015, dated 2018).

How the values were obtained:
IRAK4 = molecular target: T1, IRAK4 (Homo sapiens, UniProt Q9NWZ3); experiment: IRAK4 enzymatic assay (ADP-Glo luminescence); type: biochemical; settings: purified human recombinant His-TEV-IRAK4 (1-460), ATP 2 μM
T1 construct: His-TEV-IRAK4 (1-460); His (N); TEV cleavage site (N)
T1 sequence (Q9NWZ3 1-460): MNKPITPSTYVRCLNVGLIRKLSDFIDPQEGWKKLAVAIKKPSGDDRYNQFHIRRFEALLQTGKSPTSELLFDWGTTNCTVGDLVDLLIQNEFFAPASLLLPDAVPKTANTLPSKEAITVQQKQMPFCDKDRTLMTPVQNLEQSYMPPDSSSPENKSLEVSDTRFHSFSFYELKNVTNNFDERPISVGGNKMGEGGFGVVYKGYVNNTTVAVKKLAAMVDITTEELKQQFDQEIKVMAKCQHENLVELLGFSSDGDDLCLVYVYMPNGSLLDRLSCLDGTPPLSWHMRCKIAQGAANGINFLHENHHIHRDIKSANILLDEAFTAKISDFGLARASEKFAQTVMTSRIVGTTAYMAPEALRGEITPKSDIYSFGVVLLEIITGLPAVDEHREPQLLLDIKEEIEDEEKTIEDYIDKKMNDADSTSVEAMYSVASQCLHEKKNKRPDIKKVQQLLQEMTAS
Summary of the method: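 Recombinant His-TEV-IRAK4 (1-460) at 0.3 μg/ml preincubated 15 min at RT with compounds (10 μM to 0.5 nM) in Hepes pH 7.0 buffer with MgCl2/MnCl2. Reaction started with 2 μM ATP and 300 nM STK1-biotin peptide, run 2 h at RT. ADP formed read by ADP-Glo luminescence.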

IRAK1 = molecular target: T2, IRAK1 (Homo sapiens, UniProt P51617); experiment: IRAK1 enzymatic assay (ADP-Glo luminescence); type: biochemical; settings: purified human recombinant His-TEV-IRAK1 (194-712)
T2 construct: His-TEV-IRAK1 (194-712); His (N); TEV cleavage site (N)
T2 sequence (P51617 194-712): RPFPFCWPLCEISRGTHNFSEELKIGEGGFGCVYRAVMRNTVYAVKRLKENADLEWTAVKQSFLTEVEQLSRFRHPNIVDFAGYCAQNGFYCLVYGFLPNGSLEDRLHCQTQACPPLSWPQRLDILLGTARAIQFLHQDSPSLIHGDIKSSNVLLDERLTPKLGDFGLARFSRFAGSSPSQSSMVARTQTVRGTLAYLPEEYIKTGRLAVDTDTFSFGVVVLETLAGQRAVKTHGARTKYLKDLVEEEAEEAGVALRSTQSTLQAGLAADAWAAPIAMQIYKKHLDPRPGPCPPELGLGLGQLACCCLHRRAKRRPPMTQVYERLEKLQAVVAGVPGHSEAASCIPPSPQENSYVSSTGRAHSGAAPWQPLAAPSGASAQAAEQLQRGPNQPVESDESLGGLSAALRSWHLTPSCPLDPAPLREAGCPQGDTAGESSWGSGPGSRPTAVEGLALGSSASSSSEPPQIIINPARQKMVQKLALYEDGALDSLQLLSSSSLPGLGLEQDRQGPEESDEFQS
Summary of the method: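 Recombinant human His-TEV-IRAK1 (194-712), 0.3 μg/ml, preincubated 15 min at RT with compounds (10 μM to 0.5 nM) in 50 mM Hepes pH 7.0, 10 mM MgCl2, 2 mM DTT, 0.1% BSA. ATP-started reaction run 2 hours at RT; ADP formed from ATP hydrolysis/autophosphorylation read by ADP-Glo luminescence.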

SMILES	IC50 (IRAK4) [µM]	IC50 (IRAK1) [µM]
Cn1nc(C(=O)/N=c2\[nH]c3cc(N4CCOCC4=O)ccc3n2CCCO)c2ccccc21 [Compound 60, (E)-N-(1-(3-hydroxypropyl)-5-(3-oxomorpholino)-1H-benzo[d]imidazol-2(3H)-ylidene)-1-methyl-1H-indazole-3-carboxamide]	> 1	> 1
CSCCn1/c(=N/C(=O)c2cccc(C(F)F)c2)[nH]c2cc(N3CCOCC3=O)ccc21 [Compound 63, (E)-3-(difluoromethyl)-N-(1-(2-(methylthio)ethyl)-5-(3-oxomorpholino)-1H-benzo[d]imidazol-2(3H)-ylidene)benzamide]	≤ 0.1	0.1 to 1
COc1cc2c(cc1N1CCOCC1=O)[nH]/c(=N\C(=O)c1cccc(CO)c1)n2CCCO [Compound 64, (E)-3-(hydroxymethyl)-N-(1-(3-hydroxypropyl)-6-methoxy-5-(3-oxomorpholino)-1H-benzo[d]imidazol-2(3H)-ylidene)benzamide]	≤ 0.1	0.1 to 1
C[C@H](CCO)n1/c(=N/C(=O)c2cccc(OC(F)F)c2)[nH]c2cc(N3CCOCC3=O)ccc21 [Compound 65, (R,E)-3-(difluoromethoxy)-N-(1-(4-hydroxybutan-2-yl)-5-(3-oxomorpholino)-1H-benzo[d]imidazol-2(3H)-ylidene)benzamide]	≤ 0.1	≤ 0.1
O=C(/N=c1\[nH]c2cc(N3CCOCC3=O)ccc2n1CC1(CO)CC1)c1cccc(OC(F)F)c1 [Compound 66, (E)-3-(difluoromethoxy)-N-(1-((1-(hydroxymethyl)cyclopropyl)methyl)-5-(3-oxomorpholino)-1H-benzo[d]imidazol-2(3H)-ylidene)benzamide]	≤ 0.1	0.1 to 1
O=C(/N=c1\[nH]c2cc(N3CCOCC3=O)ccc2n1CCCO)c1cnccn1 [Compound 72, (E)-N-(1-(3-hydroxypropyl)-5-(3-oxomorpholino)-1H-benzo[d]imidazol-2(3H)-ylidene)pyrazine-2-carboxamide]	> 1	> 1
COc1cc2c(cc1N1CCOCC1=O)[nH]/c(=N\C(=O)c1cccc(C#N)c1)n2CCCO [Compound 74, (E)-3-cyano-N-(1-(3-hydroxypropyl)-6-methoxy-5-(3-oxomorpholino)-1H-benzo[d]imidazol-2(3H)-ylidene)benzamide]	≤ 0.1	≤ 0.1
COc1cc2c(cc1N1CCOCC1=O)[nH]/c(=N\C(=O)c1cccc(C(F)F)c1)n2CCCO [Compound 75, (E)-3-(difluoromethyl)-N-(1-(3-hydroxypropyl)-6-methoxy-5-(3-oxomorpholino)-1H-benzo[d]imidazol-2(3H)-ylidene)benzamide]	≤ 0.1	≤ 0.1
O=C(/N=c1\[nH]c2cc(N3CCOCC3=O)ccc2n1CCCO)c1cccnc1 [Compound 77, (E)-N-(1-(3-hydroxypropyl)-5-(3-oxomorpholino)-1H-benzo[d]imidazol-2(3H)-ylidene)nicotinamide]	≤ 0.1	0.1 to 1
O=C(/N=c1\[nH]c2cc(N3CCOCC3=O)ccc2n1CCCO)c1cccc(C(F)F)c1 [Compound 79, (E)-3-(difluoromethyl)-N-(1-(3-hydroxypropyl)-5-(3-oxomorpholino)-1H-benzo[d]imidazol-2(3H)-ylidene)benzamide]	≤ 0.1	≤ 0.1
O=C(/N=c1\[nH]c2cc(N3CCOCC3=O)ccc2n1C1CCS(=O)(=O)CC1)c1cccc(C(F)F)c1 [Compound 80, (E)-3-(difluoromethyl)-N-(1-(1,1-dioxidotetrahydro-2H-thiopyran-4-yl)-5-(3-oxomorpholino)-1H-benzo[d]imidazol-2(3H)-ylidene)benzamide]	≤ 0.1	≤ 0.1
CS(=O)(=O)c1cccc(C(=O)/N=c2\[nH]c3cc(N4CCOCC4=O)ccc3n2CCCO)c1 [Compound 82, (E)-N-(1-(3-hydroxypropyl)-5-(3-oxomorpholino)-1H-benzo[d]imidazol-2(3H)-ylidene)-3-(methylsulfonyl)benzamide]	≤ 0.1	0.1 to 1
O=C(/N=c1\[nH]c2cc(N3CCOCC3=O)ccc2n1CCCO)c1cccc(-n2cnnn2)c1 [Compound 83, (E)-N-(1-(3-hydroxypropyl)-5-(3-oxomorpholino)-1H-benzo[d]imidazol-2(3H)-ylidene)-3-(1H-tetrazol-1-yl)benzamide]	≤ 0.1	0.1 to 1
O=C(/N=c1\[nH]c2cc(N3CCOCC3=O)ccc2n1CCCO)c1cccc(C(F)(F)F)n1 [Compound 84, (E)-N-(1-(3-hydroxypropyl)-5-(3-oxomorpholino)-1H-benzo[d]imidazol-2(3H)-ylidene)-6-(trifluoromethyl)picolinamide]	0.1 to 1	> 1
O=C(/N=c1\[nH]c2cc(N3CCOCC3=O)ccc2n1CCCO)c1cncc(C(F)(F)F)c1 [Compound 85, (E)-N-(1-(3-hydroxypropyl)-5-(3-oxomorpholino)-1H-benzo[d]imidazol-2(3H)-ylidene)-5-(trifluoromethyl)nicotinamide]	≤ 0.1	0.1 to 1
C[S+]([O-])CCCCn1/c(=N/C(=O)c2cccc(C(F)F)c2)[nH]c2cc(N3CCOCC3=O)ccc21 (stereo not shown) [Compound 88]	≤ 0.1	0.1 to 1
CSCCCCn1/c(=N/C(=O)c2cccc(C(F)F)c2)[nH]c2cc(N3CCOCC3=O)ccc21 [Compound 89, (E)-3-(difluoromethyl)-N-(1-(4-(methylthio)butyl)-5-(3-oxomorpholino)-1H-benzo[d]imidazol-2(3H)-ylidene)benzamide]	0.1 to 1	> 1

Second part, the molecule after the results:

IC50 (IRAK4) [µM]	IC50 (IRAK1) [µM]	SMILES
≤ 0.1	≤ 0.1	Cc1cc2c(cc1N1CCOCC1=O)[nH]/c(=N\C(=O)c1cc(F)cc(C(F)(F)F)c1)n2CCCO [Compound 67, (E)-3-fluoro-N-(1-(3-hydroxypropyl)-6-methyl-5-(3-oxomorpholino)-1H-benzo[d]imidazol-2(3H)-ylidene)-5-(trifluoromethyl)benzamide]
≤ 0.1	0.1 to 1	Cc1cc2c(cc1N1CCOCC1=O)[nH]/c(=N\C(=O)c1cccc(C#N)c1)n2CCCO [Compound 68, (E)-3-cyano-N-(1-(3-hydroxypropyl)-6-methyl-5-(3-oxomorpholino)-1H-benzo[d]imidazol-2(3H)-ylidene)benzamide]
≤ 0.1	≤ 0.1	Cc1cc2c(cc1N1CCOCC1=O)[nH]/c(=N\C(=O)c1cccc(C(F)F)c1)n2CCCO [Compound 69, (E)-3-(difluoromethyl)-N-(1-(3-hydroxypropyl)-6-methyl-5-(3-oxomorpholino)-1H-benzo[d]imidazol-2(3H)-ylidene)benzamide]
≤ 0.1	0.1 to 1	Cc1cc2c(cc1N1CCOCC1=O)[nH]/c(=N\C(=O)c1cccc(C(F)(F)F)c1)n2CCCO [Compound 70, (E)-N-(1-(3-hydroxypropyl)-6-methyl-5-(3-oxomorpholino)-1H-benzo[d]imidazol-2(3H)-ylidene)-3-(trifluoromethyl)benzamide]
≤ 0.1	≤ 0.1	COc1cc2c(cc1N1CCOCC1=O)[nH]/c(=N\C(=O)c1cc(F)cc(C(F)(F)F)c1)n2CCCO [Compound 73, (E)-3-fluoro-N-(1-(3-hydroxypropyl)-6-methoxy-5-(3-oxomorpholino)-1H-benzo[d]imidazol-2(3H)-ylidene)-5-(trifluoromethyl)benzamide]
≤ 0.1	≤ 0.1	COc1cc2c(cc1N1CCOCC1=O)[nH]/c(=N\C(=O)c1cccc(C(F)(F)F)c1)n2CCCO [Compound 76, (E)-N-(1-(3-hydroxypropyl)-6-methoxy-5-(3-oxomorpholino)-1H-benzo[d]imidazol-2(3H)-ylidene)-3-(trifluoromethyl)benzamide]
≤ 0.1	> 1	Cc1ccc(C(=O)/N=c2\[nH]c3cc(N4CCOCC4=O)ccc3n2CCCO)cc1C(F)(F)F [Compound 78, (E)-N-(1-(3-hydroxypropyl)-5-(3-oxomorpholino)-1H-benzo[d]imidazol-2(3H)-ylidene)-4-methyl-3-(trifluoromethyl)benzamide]
≤ 0.1	≤ 0.1	O=C(/N=c1\[nH]c2cc(N3CCOCC3=O)ccc2n1CCCO)c1cc(F)cc(C(F)(F)F)c1 [Compound 81, (E)-3-fluoro-N-(1-(3-hydroxypropyl)-5-(3-oxomorpholino)-1H-benzo[d]imidazol-2(3H)-ylidene)-5-(trifluoromethyl)benzamide]
≤ 0.1	0.1 to 1	O=C(/N=c1\[nH]c2cc(N3CCOCC3=O)ccc2n1CCCO)c1cccc(C(F)(F)F)c1 [Compound 86, (E)-N-(1-(3-hydroxypropyl)-5-(3-oxomorpholino)-1H-benzo[d]imidazol-2(3H)-ylidene)-3-(trifluoromethyl)benzamide]
